Laboratory results: US20160016951A1 (Merck Patent GmbH, priority 2014, published 2016)

Biological target: T1, CDK8 (CDK8/CycC) (Homo sapiens, UniProt P49336)
T1 construct: purchased Invitrogen PV4402
Test: FRET based Lanthascreen binding competition assay
Settings: not given
Procedure: FRET based Lanthascreen binding competition assay: A dye-labeled ATP competitive probe served as a FRET acceptor upon binding to CDK8 labeled with a strepavidin —Eu-chelate (via abiotinylated anti His antibody). […] In case this probe was competed by an inhibitor as such a signal cannot be generated any more. The CDK8 used for this assay was a protein co-expressed with CycC.
The assay procedure for an assay in a 1536 well plate was performed according to the following: 2 μL CDK8/biotin-anti-His Ab/SA-Eu mix in Assay buffer were pipetted into the wells of a micro plate.
1 μL compound in 20 mM Hepes buffer/5% DMSO was added. The plate was shaken for 30 sec and incubated for 20 min at RT. 2 μL Alexa647-probe in assay buffer were added. The plate was shaken for 30 sec again and incubated for 60 min at RT in the dark. Then the plate was read out on a Perkin Elmer Envision (mode LANCE/TRF, excitation 340 nm emission 650 nm).

T1 sequence (P49336 whole entry): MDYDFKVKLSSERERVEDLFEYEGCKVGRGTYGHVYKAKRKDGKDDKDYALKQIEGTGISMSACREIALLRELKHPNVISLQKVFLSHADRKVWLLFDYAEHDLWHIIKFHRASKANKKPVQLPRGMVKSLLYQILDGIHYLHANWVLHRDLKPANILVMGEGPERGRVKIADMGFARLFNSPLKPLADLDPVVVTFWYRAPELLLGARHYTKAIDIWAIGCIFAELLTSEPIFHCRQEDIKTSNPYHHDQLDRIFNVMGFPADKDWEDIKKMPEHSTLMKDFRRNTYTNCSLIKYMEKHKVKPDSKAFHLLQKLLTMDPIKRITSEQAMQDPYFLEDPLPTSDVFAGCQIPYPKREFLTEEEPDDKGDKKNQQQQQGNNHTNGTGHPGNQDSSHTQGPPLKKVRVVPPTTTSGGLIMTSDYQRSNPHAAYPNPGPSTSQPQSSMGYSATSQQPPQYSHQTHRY
T1 sequence (P24863 whole entry partner): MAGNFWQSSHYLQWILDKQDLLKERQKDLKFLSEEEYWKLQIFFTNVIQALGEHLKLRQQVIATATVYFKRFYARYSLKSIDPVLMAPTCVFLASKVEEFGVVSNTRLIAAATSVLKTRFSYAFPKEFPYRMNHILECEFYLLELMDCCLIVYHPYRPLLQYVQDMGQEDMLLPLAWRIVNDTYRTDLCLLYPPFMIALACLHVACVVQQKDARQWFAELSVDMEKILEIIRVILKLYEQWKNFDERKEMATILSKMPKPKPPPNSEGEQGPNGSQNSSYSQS

IC50 [nM] | SMILES
10 to 100 | COC1CN(C(=O)c2ccc3cncc(-c4ccc5nn(CC(C)(C)O)cc5c4)c3c2)C1 [Compound 133, (4-(2-(2-hydroxy-2-methylpropyl)-2H-indazol-5-yl)isoquinolin-6-yl)(3-methoxyazetidin-1-yl)methanone]

Same assay, conditions: 5 nM CDK8/CycC, 10 nM Alexa647-Tracer, 1% DMSO, 60 min at RT; read-out: IC50 CDK8 binding

IC50 [nM] | SMILES
10 to 100 | CC1CC(=O)N(c2ccc3cncc(-c4ccc(-c5cnn(C)c5)cc4)c3c2)C1 (stereo not drawn) [Compound 111, 4-Methyl-1-{4-[4-(1-methyl-1H-pyrazol-4-yl)-phenyl]-isoquinolin-6-yl}-pyrrolidin-2-one]
10 to 100 | COc1ccc(CNC(=O)c2ccc3cncc(-c4ccc(-c5cnn(C)c5)cc4)c3n2)cc1 [Compound 81, N-(4-methoxybenzyl)-8-(4-(1-methyl-1H-pyrazol-4-yl)phenyl)-1,6-naphthyridine-2-carboxamide]
< 10 | COC1CN(C(=O)c2ccc3cncc(-c4ccc(-c5cnn(CC(C)(C)O)c5)cc4)c3n2)C1 [Compound 31, (8-(4-(1-(2-hydroxy-2-methylpropyl)-1H-pyrazol-4-yl)phenyl)-1,6-naphthyridin-2-yl)(3-methoxyazetidin-1-yl)methanone]
10 to 100 | O=C(c1ccc2cncc(Br)c2n1)N1CCC[C@H]1c1ccc(C(F)(F)F)cc1 [Compound 91, (S)-(8-bromo-1,6-naphthyridin-2-yl)(2-(4-(trifluoromethyl)phenyl)pyrrolidin-1-yl)methanone]
10 to 100 | Cn1cc(-c2ccc(-c3cncc4ccc(N5CCCCS5(=O)=O)cc34)cc2)cn1 [Compound 110, 6-(1,1-Dioxo-[1,2]thiazinan-2-yl)-4-[4-(1-methyl-1H-pyrazol-4-yl)-phenyl]-isoquinoline]
< 10 | COC1CN(C(=O)c2ccc3cncc(-c4ccc5c(cnn5C)c4)c3n2)C1 [Compound 22, (3-methoxyazetidin-1-yl)(8-(1-methyl-1H-indazol-5-yl)-1,6-naphthyridin-2-yl)methanone]
10 to 100 | COC1CN(C(=O)c2ccc3cncc(-c4ccc5c(c4)CCC(=O)N5C)c3c2)C1 [Compound 155, 6-[6-(3-Methoxy-azetidine-1-carbonyl)-isoquinolin-4-yl]-1-methyl-3,4-dihydro-1H-quinolin-2-one]
< 10 | CN(O)C(=O)c1ccc2cncc(-c3ccc(-c4cnn(C)c4)cc3)c2n1 [Compound 76, N-Hydroxy-N-methyl-8-(4-(1-methyl-1H-pyrazol-4-yl)phenyl)-1,6-naphthyridine-2-carboxamide]
10 to 100 | Cc1cc2cncc(-c3ccc4c(c3)CS(=O)(=O)N4C)c2nc1C(=O)N1CCC(F)(F)C1 [Compound 41, (3,3-Difluoro-pyrrolidin-1-yl)-[3-methyl-8-(1-methyl-2,2-dioxo-2,3-dihydro-1H-benzo[c]isothiazol-5-yl)-[1,6]naphthyridin-2-yl]-methanone]
10 to 100 | CN1C(=O)Cc2ccc(-c3cnc(N)c4ccc(C(=O)N5CC(F)(F)C5)cc34)cc21 [Compound 164, 6-[1-Amino-6-(3,3-difluoro-azetidine-1-carbonyl)-isoquinolin-4-yl]-1-methyl-1,3-dihydro-indol-2-one]
< 10 | C[C@H](NC(=O)c1ccc2cncc(-c3ccc(-c4cnn(C)c4)cc3)c2n1)c1ccccc1 [Compound 27, (S)-8-(4-(1-methyl-1H-pyrazol-4-yl)phenyl)-N-(1-phenylethyl)-1,6-naphthyridine-2-carboxamide]
10 to 100 | Cn1cc(-c2ccc(-c3cncc4ccc(-c5nn[nH]n5)nc34)cc2)cn1 [Compound 42, 8-(4-(1-methyl-1H-pyrazol-4-yl)phenyl)-2-(2H-tetrazol-5-yl)-1,6-naphthyridine]
< 10 | Cn1cc(-c2ccc(-c3cncc4ccc(NS(=O)(=O)c5ccccc5)cc34)cc2)cn1 [Compound 152, N-{4-[4-(1-Methyl-1H-pyrazol-4-yl)-phenyl]-isoquinolin-6-yl}-benzenesulfonamide]
< 10 | CNC(=O)c1ccc2cncc(-c3ccc(-c4cnn(C)c4)cc3F)c2n1 [Compound 17, 8-(2-fluoro-4-(1-methyl-1H-pyrazol-4-yl)phenyl)-N-methyl-1,6-naphthyridine-2-carboxamide]
10 to 100 | COC1CN(C(=O)c2ccc3cncc(-c4ccc(-c5cn(C)nc5C(F)(F)F)cc4)c3n2)C1 [Compound 49, (3-methoxyazetidin-1-yl)(8-(4-(1-methyl-3-(trifluoromethyl)-1H-pyrazol-4-yl)phenyl)-1,6-naphthyridin-2-yl)methanone]
< 10 | CN1c2ccc(-c3cncc4ccc(C(=O)NCCN)nc34)cc2CS1(=O)=O [Compound 16, 8-(1-Methyl-2,2-dioxo-2,3-dihydro-1H-benzo[c]isothiazol-5-yl)-[1,6]naphthyridine-2-carboxylic acid (2-amino-ethyl)-amide]
10 to 100 | CN1C(=O)Cc2cc(-c3cnc(N)c4ccc(C(=O)N5CC(F)(F)C5)cc34)ccc21 [Compound 171, 5-[1-Amino-6-(3,3-difluoro-azetidine-1-carbonyl)-isoquinolin-4-yl]-1-methyl-1,3-dihydro-indol-2-one]
10 to 100 | O=C(c1ccc2cncc(Br)c2n1)N1CCC[C@H]1c1ccc(Br)cc1 [Compound 89, (S)-(8-bromo-1,6-naphthyridin-2-yl)(2-(4-bromophenyl)pyrrolidin-1-yl)methanone]

IC50 [nM] | SMILES
101 to 500 | Cc1ncc(-c2ccc(-c3cnn(C)c3)cc2)c2nc(C(N)=O)ccc12 [Compound 61, 5-Methyl-8-(4-(1-methyl-1H-pyrazol-4-yl)phenyl)-1,6-naphthyridine-2-carboxamide]
10 to 100 | CNC(=O)c1ccc2cncc(-c3ccc(-c4cnn(C)c4)cc3C)c2n1 [Compound 43, N-methyl-8-(2-methyl-4-(1-methyl-1H-pyrazol-4-yl)phenyl)-1,6-naphthyridine-2-carboxamide]
10 to 100 | CN1C(=O)CCc2cc(-c3cncc4ccc(C(=O)N5CC(F)(F)C5)cc34)ccc21 [Compound 158, 6-[6-(3,3-Difluoro-azetidine-1-carbonyl)-isoquinolin-4-yl]-1-methyl-3,4-dihydro-1H-quinolin-2-one]
10 to 100 | Cn1cc(-c2ccc(-c3cncc4ccc(-c5nnnn5C)cc34)cc2)cn1 [Compound 123, 4-(4-(1-methyl-1H-pyrazol-4-yl)phenyl)-6-(1-methyl-1H-tetrazol-5-yl)isoquinoline]
10 to 100 | COC1CN(C(=O)c2ccc3c(N)ncc(-c4ccc5c(c4)N(C)C(=O)C5)c3c2)C1 [Compound 173, 6-[1-Amino-6-(3-methoxy-azetidine-1-carbonyl)-isoquinolin-4-yl]-1-methyl-1,3-dihydro-indol-2-one]
< 10 | CC(C)(O)Cn1cc(-c2ccc(-c3cncc4ccc(NS(C)(=O)=O)cc34)cc2)cn1 [Compound 138, N-(4-(4-(1-(2-hydroxy-2-methylpropyl)-1H-pyrazol-4-yl)phenyl)isoquinolin-6-yl)methanesulfonamide]
101 to 500 | Cc1cc(C(N)=O)nc2c(-c3ccc(-c4cnn(C)c4)cc3)cncc12 [Compound 64, 4-Methyl-8-(4-(1-methyl-1H-pyrazol-4-yl)phenyl)-1,6-naphthyridine-2-carboxamide]
101 to 500 | COC1CN(C(=O)c2ccc3cncc(-c4ccc5c(cnn5CC(C)(C)O)c4)c3c2)C1 [Compound 132, (4-(1-(2-hydroxy-2-methylpropyl)-1H-indazol-5-yl)isoquinolin-6-yl)(3-methoxyazetidin-1-yl)methanone]
10 to 100 | O=C(c1ccc2cncc(Br)c2n1)N1CCC[C@H]1c1ccc(F)cc1 [Compound 90, (S)-(8-bromo-1,6-naphthyridin-2-yl)(2-(4-fluorophenyl)pyrrolidin-1-yl)methanone]
101 to 500 | Cn1cc(-c2ccc(-c3c(Cl)ncc4ccc(C(=N)N)nc34)cc2)cn1 [Compound 68, 7-chloro-8-(4-(1-methyl-1H-pyrazol-4-yl)phenyl)-1,6-naphthyridine-2-carboximidamide]
101 to 500 | CN1C(=O)CCc2cc(-c3cnc(N)c4ccc(C(=O)N5CC(F)(F)C5)cc34)ccc21 [Compound 172, 6-[1-Amino-6-(3,3-difluoro-azetidine-1-carbonyl)-isoquinolin-4-yl]-1-methyl-3,4-dihydro-1H-quinolin-2-one]
101 to 500 | CNc1ccc2cncc(-c3ccc(-c4cnn(C)c4)cc3)c2n1 [Compound 56, N-methyl-8-(4-(1-methyl-1H-pyrazol-4-yl)phenyl)-1,6-naphthyridin-2-amine]
10 to 100 | CN(c1ccc2cncc(-c3ccc(-c4cnn(C)c4)cc3)c2c1)S(C)(=O)=O [Compound 139, N-methyl-N-(4-(4-(1-methyl-1H-pyrazol-4-yl)phenyl)isoquinolin-6-yl)methanesulfonamide]
< 10 | O=C1Cc2ccc(-c3cncc4ccc(C(=O)N5CCC5)cc34)cc2N1 [Compound 145, 6-(6-(azetidine-1-carbonyl)isoquinolin-4-yl)indolin-2-one]
10 to 100 | Cn1cc(-c2ccc(-c3cncc4ccc(C#N)cc34)cc2)cn1 [Compound 118, 4-(4-(1-methyl-1H-pyrazol-4-yl)phenyl)isoquinoline-6-carbonitrile]
< 10 | O=C(c1ccc2cncc(-c3ccc4c(c3)CS(=O)(=O)N4)c2n1)N1CCC(F)(F)C1 [Compound 30, (3,3-difluoro-pyrrolidin-1-yl)-[8-(2,2-dioxo-2,3-dihydro-1H-benzo[c]isothiazol-5-yl)-[1,6]naphthyridin-2-yl]-methanone]
10 to 100 | C[C@@H](NC(=O)c1ccc2cncc(Br)c2n1)c1ccccc1 [Compound 48, (R)-8-bromo-N-(1-phenylethyl)-1,6-naphthyridine-2-carboxamide]
